“Also recorded” adds a separate entry of the source.
Tested on: β-oxidation
Test: PHA co-polymer composition of lithotrophic C. necator strains with acrylic acid (GCMS of 3-hydroxy acid methyl esters)
Assay type: cell-based
Procedure: PHA extraction and analysis: After 48 hr of growth in the second media exchange, 100 ml lithotrophic PHA-producing C. necator cultures were induced with 0.3% arabinose where indicated along with 240 ug/mL acrylic acid where indicated and grown for 5 days at 30° C. Cultures were harvest, pelleted, and lyophilized overnight. Freeze dried pellets were weighed for dry cell weight. PHA was purified with 0.2 ml/mg DCW of 13% NaClO^− for 4 hr at 30° C., washed twice with dH2O, washed once with acetone, then dried at 25° C. overnight. 1:1 methanol and HCl in dioxane to a final volume of 3 ml (1% pentadecanoate as internal standard), the tubes were sealed with crimp top and incubated in oil bath at 90° C. for 20 hr. Tubes were placed on ice, once cooled, 2 ml of chloroform was added and vigorously vortexed, 3 ml of dH2O was added followed by extensive vortexing, the organic phase was separated by centrifugation (10 min, 4,000×g), organic phase removed and stored at −20° C. until GCMS analysis.
GCMS analysis: PHA samples were analyzed by GC-MS 5975/7890 (Agilent Technologies™) on a DB-35 ms column. Samples were heated on a gradient from 40 to 250° C. at 5° C./min. The co-polymer composition was determined with the mass spectra of the 3-hydroxy alkanoic acid methyl esters at m/z=103 and NIST Mass Spectral Library™.

Q: What does the source list for `C=CC(=O)O` [acrylic acid]?
A: effect on PHA composition (PAS826 (wildtype phaC) and PAS827 (ΔphaC), 240 μg/mL acrylic acid with induction): no effect; also recorded: not strongly affected; proportion of 3HO and 3HD (PAS828, 240 μg/mL acrylic acid): decreased to undetectable levels; contribution to PHA composition (PAS828 / PAS829 (UcFatB2, phaC1Pa), 240 μg/mL acrylic acid): did not contribute significantly; copolymer composition compared to no-acrylic acid condition (PAS829, 240 μg/mL acrylic acid): slightly enriched for longer-chain fatty acids; mcl-3HA proportion of PHA (PAS830 (native phaC, chim4, phaC1Ps), with acrylic acid, mean): 72.6%; 3HO proportion of PHA (PAS830, with acrylic acid, mean): 54.6%; enrichment of mcl-3HAs (PAS831, after the addition of acrylic acid): minor enrichment; 3HD proportion of PHA (PAS831, with acrylic acid, n=2): 7.1%; 3HDD proportion of PHA (PAS831, with acrylic acid, n=2): 2.6%; 3HO proportion of PHA (PAS831, with acrylic acid, n=2): 61.4%; 3HTD proportion of PHA (PAS831, with acrylic acid, n=2): 1.2%; mcl-3HA proportion of PHA (PAS832 (native phaC, UcFatB2, phaC2Pa), with acrylic acid, n=3): 59.4%; 3HDD proportion of PHA (PAS832, with acrylic acid, n=3): 36.3%; 3HDD proportion of PHA (PAS833 (ΔphaC, UcFatB2, phaC2Pa), with acrylic acid): 60.3%
